In patent US6670168B1, “Recombinant Streptomyces hygroscopicus host cells that produce 17-desmethylrapamycin” (Kosan Bioscience, Inc., priority 1999, dated 2003):

Experiment: immunosuppressive activity compared with rapamycin (no test described)
Conditions: relative to rapamycin; qualitative statement, no method or data given

COC1CC(CC(C)C2CC(=O)C(C)C=C(C)C(O)CC(=O)C(C)CC(C)C=CC=CC=C(C)C(O)CC3CCC(C)C(O)(O3)C(=O)C(=O)N3CCCCC3C(=O)O2)CCC1O (stereo not shown) [16-desmethyl-27-desmethoxyrapamycin]
immunosuppressive activity: lower immunosuppressive activity than rapamycin
